{
  "source": "patent US12152038B2",
  "about": "“Vasopressin receptor antagonists and products and methods related thereto” (Neumora Therapeutics, Inc., priority 2017, dated 2024)",
  "test_system": "Male CD-1 mice",
  "test": "AVP induced scratching, digging and grooming behavior in mouse",
  "type": "in vivo",
  "details": "po, AVP i.c.v., 15 minutes observation",
  "from_the_text": "Administration of Arginine-Vasopressin (AVP) intracerebroventricularly (i.c.v.) elicits characteristic scratching, digging and grooming behavior in mice that can be measured readily and is sensitive to blockade with vasopressin antagonists (Meisenberg, Ann N Y Acad Sci. 525:257-69, 1988; Bleickardt et. al., Psychopharmacology (Berl). 202(4):711-8, 2009).\nMale CD-1 mice (Charles River Germany) weighing 22-25 g upon the study in-life were used for this study. Animals were housed in groups of 4-5 per cage in standard temperature (22±1° C.) and light-controlled environment (lights on from 7 am to 8 pm), with ad libitum access to food and water. Prior to commencing any procedures to the mice, they were allowed to habituate in the vivarium for a minimum of 7 days. Anesthesia was induced in a plexiglass chamber for 2-3 min with 5% isoflurane and maintained through a snout mask with 1-2% isoflurane thereafter. A homeothermic blanket system with a rectal probe was used to monitor and maintain the animal's body temperature at 37.0° C.±1.5° C. during the operation. Anesthetized mice were placed in a stereotaxic apparatus and skin between the ears shaved and disinfected with povidone-iodine solution (Betadine). A 10-μl Hamilton syringe with 28-gauge needle was used for the i.c.v. injections. All animals receive identical AVP injections (3.689 μM) or sterile saline (0.9% sodium chloride solution) into the right lateral ventricle at the following coordinates: AP=+0.5 mm; ML=+1.0 mm; DV=−2.5 mm (approximately from bregma). The actual coordinates were calculated by the distance from the point in midline between the eyes and no skin incision was made. […]\nMice were observed and video-recorded for 15 minutes following AVP/saline administration and behaviors were measured (in seconds) and a cumulative time was calculated. […] Using this assay, balovaptan (100 and 300 mg/kg, po), JNJ-17308616 (30, 100 mg/kg, po) and Compound No. 1-83B (100, 300, 500 mg/kg, po) were evaluated for antagonist activity to AVP-induced scratching behaviors.",
  "data": [
    {"smiles": "CC1COc2cc(Cl)ccc2N1C(=O)N1CC2(C1)CN(c1ncccn1)C2", "note": "(single isomer, unassigned) [1-83-B, (7-chloro-3-methyl-2,3-dihydro-4H-benzo[b][1,4]oxazin-4-yl)(6-(pyrimidin-2-yl)-2,6-diazaspiro[3.3]heptan-2-yl)methanone]", "values": [
      {"measurement": "antagonist activity to AVP-induced scratching behaviors", "setting": "300 mg/kg", "result": "effective"},
      {"measurement": "antagonist activity to AVP-induced scratching behaviors", "setting": "500 mg/kg", "result": "effective"}
    ]}
  ]
}
